Results published in PubChem BioAssay AID1963862 (Molecular Pharmacology Branch, DTP, NCI, 2024).
pIC50: −log10 of the molar value.

Test system: KRAS patient-derived spheroids with HUVEC/MSC, viability
Assay: Anticancer human tumor 941728-121-R-J1-PDC patient-derived lung adenocarcinoma cell line growth inhibition [KRAS2]
Conditions: for pIC50: curve of first compound; for viability, T/C: stronger effect = lower value; active = viability on the fitted dose curve at most 10% of control; inactive = the rest
Outline: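 Combination screen of spheroid viability in tumor-cell co-cultures with endothelial (HUVEC) and mesenchymal stem cell stroma. Each agent was tested in half-log dilutions, topping at clinical Cmax or at 10 microM without a known Cmax.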

[1] = second compound 0.1 µM, first compound 0.000316 µM
[2] = second compound 0.1 µM, first compound 0.001 µM
[3] = second compound 0.1 µM, first compound 0.00316 µM
[4] = second compound 0.1 µM, first compound 0.01 µM
[5] = second compound 0.1 µM, first compound 0.0316 µM
[6] = second compound 0.1 µM, first compound 0.1 µM
[7] = second compound 0.316 µM, first compound 0.000316 µM
[8] = second compound 0.316 µM, first compound 0.001 µM
[9] = second compound 0.316 µM, first compound 0.00316 µM
[10] = second compound 0.316 µM, first compound 0.01 µM
[11] = second compound 0.316 µM, first compound 0.0316 µM
[12] = second compound 0.316 µM, first compound 0.1 µM
[13] = second compound 1 µM, first compound 0.000316 µM
[14] = second compound 1 µM, first compound 0.001 µM
[15] = second compound 1 µM, first compound 0.00316 µM
[16] = second compound 1 µM, first compound 0.01 µM
[17] = second compound 1 µM, first compound 0.0316 µM
[18] = second compound 1 µM, first compound 0.1 µM
[19] = second compound 3.16 µM, first compound 0.000316 µM
[20] = second compound 3.16 µM, first compound 0.001 µM
[21] = second compound 3.16 µM, first compound 0.00316 µM
[22] = second compound 3.16 µM, first compound 0.01 µM
[23] = second compound 3.16 µM, first compound 0.0316 µM
[24] = second compound 3.16 µM, first compound 0.1 µM
[25] = second compound 10 µM, first compound 0.000316 µM
[26] = second compound 10 µM, first compound 0.001 µM
[27] = second compound 10 µM, first compound 0.00316 µM
[28] = second compound 10 µM, first compound 0.01 µM
[29] = second compound 10 µM, first compound 0.0316 µM
[30] = second compound 10 µM, first compound 0.1 µM
[31] = second compound 0.1 µM, first compound 0.316 µM
[32] = second compound 0.1 µM, first compound 1 µM
[33] = second compound 0.1 µM, first compound 3.16 µM
[34] = second compound 0.1 µM, first compound 10 µM
[35] = second compound 0.316 µM, first compound 0.316 µM
[36] = second compound 0.316 µM, first compound 1 µM
[37] = second compound 0.316 µM, first compound 3.16 µM
[38] = second compound 0.316 µM, first compound 10 µM
[39] = second compound 1 µM, first compound 0.316 µM
[40] = second compound 1 µM, first compound 1 µM
[41] = second compound 1 µM, first compound 3.16 µM
[42] = second compound 1 µM, first compound 10 µM
[43] = second compound 3.16 µM, first compound 0.316 µM
[44] = second compound 3.16 µM, first compound 1 µM
[45] = second compound 3.16 µM, first compound 3.16 µM
[46] = second compound 3.16 µM, first compound 10 µM
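Note: spheroids exposed to agents for seven days before readout.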

Cn1ncnc1[C@H]1c2n[nH]c(=O)c3cc(F)cc(c23)N[C@@H]1c1ccc(F)cc1 + COc1cc2nc(C)nc(NC(C)c3cc(N)cc(C(F)(F)F)c3)c2cc1OC1CCOC1
inactive: viability, T/C [1] 61.1% | viability, T/C [2] 51.9% | viability, T/C [3] 47.1% | viability, T/C [4] 52.2% | viability, T/C [5] 66.2% | viability, T/C [6] 58.8% | viability, T/C [7] 48.9% | viability, T/C [8] 41.8% | viability, T/C [9] 36.7% | viability, T/C [10] 36.8% | viability, T/C [11] 47.6% | viability, T/C [12] 48% | viability, T/C [13] 41.6% | viability, T/C [14] 31.4% | viability, T/C [15] 30.7% | viability, T/C [16] 25.6% | viability, T/C [17] 33.5% | viability, T/C [18] 28.7% | viability, T/C [19] 36.6% | viability, T/C [20] 34.4% | viability, T/C [21] 32.1% | viability, T/C [22] 27.4% | viability, T/C [23] 22.1% | viability, T/C [24] 23.6% | viability, T/C [25] 14.5% | viability, T/C [26] 11.8% | viability, T/C [27] 13.1% | viability, T/C [28] 8%
active: viability, T/C [29] 9.61% | viability, T/C [30] 10.3%
< 7.00: pIC50 (second compound 0.1 µM)
> 9.50: pIC50 (second compound 0.316 µM) | pIC50 (second compound 1 µM) | pIC50 (second compound 3.16 µM) | pIC50 (second compound 10 µM)

CC1COCCN1c1cc(-c2ccnn2C)c2ccnc(-c3ccn[nH]3)c2n1 (stereo unspecified)
inactive: viability, T/C (compound 0.1 µM) 44% [middle of 5 runs] | viability, T/C (compound 0.316 µM) 42% [middle of 5 runs] | viability, T/C (compound 1 µM) 35.4% [middle of 5 runs] | viability, T/C (compound 3.16 µM) 33.2% [middle of 5 runs]

CC1(C)CCC(CN2CCN(c3ccc(C(=O)NS(=O)(=O)c4ccc(NCC5CCOCC5)c([N+](=O)[O-])c4)c(Oc4cnc5[nH]ccc5c4)c3)CC2)=C(c2ccc(Cl)cc2)C1 + C=CC(=O)N1CCN(c2nc(=O)n(-c3c(C)ccnc3C(C)C)c3nc(-c4c(O)cccc4F)c(F)cc23)C(C)C1
active: viability, T/C [33] 7.67% | viability, T/C [34] 2.7% | viability, T/C [37] 9.65% | viability, T/C [38] 4.02% | viability, T/C [42] 4.29% | viability, T/C [46] 4.62% | viability, T/C (second compound 10 µM, first compound 10 µM) 8.81%
> 7.50: pIC50 (second compound 0.1 µM) | pIC50 (second compound 0.316 µM) | pIC50 (second compound 1 µM) | pIC50 (second compound 3.16 µM) | pIC50 (second compound 10 µM)
inactive: viability, T/C [5] 20.2% | viability, T/C [6] 17.6% | viability, T/C [31] 17.8% | viability, T/C [32] 17.4% | viability, T/C [11] 18.6% | viability, T/C [12] 16.1% | viability, T/C [35] 16.4% | viability, T/C [36] 16.3% | viability, T/C [17] 20.8% | viability, T/C [18] 19.7% | viability, T/C [39] 29.4% | viability, T/C [40] 17% | viability, T/C [41] 13.2% | viability, T/C [23] 19.3% | viability, T/C [24] 16.4% | viability, T/C [43] 22.5% | viability, T/C [44] 18.2% | viability, T/C [45] 15.2% | viability, T/C [29] 25.3% | viability, T/C [30] 24.8% | viability, T/C (second compound 10 µM, first compound 0.316 µM) 25.7% | viability, T/C (second compound 10 µM, first compound 1 µM) 22.4% | viability, T/C (second compound 10 µM, first compound 3.16 µM) 8.54%

CCNC(=O)CC1N=C(c2ccc(Cl)cc2)c2cc(OC)ccc2-n2c(C)nnc21 (stereo unspecified) + C=CC(=O)N1CCN(c2nc(OCC3CCCN3C)nc3c2CCN(c2cccc4cccc(C)c24)C3)CC1CC#N
inactive: viability, T/C (second compound 0.0316 µM, first compound 0.0316 µM) 31.2% | viability, T/C (second compound 0.0316 µM, first compound 0.1 µM) 33.5% | viability, T/C (second compound 0.0316 µM, first compound 0.316 µM) 24.4% | viability, T/C (second compound 0.0316 µM, first compound 1 µM) 20.3% | viability, T/C (second compound 0.0316 µM, first compound 3.16 µM) 16.1% | viability, T/C (second compound 0.0316 µM, first compound 10 µM) 14.9% | viability, T/C [5] 27.5% | viability, T/C [6] 26.7% | viability, T/C [31] 22.2% | viability, T/C [32] 16.4% | viability, T/C [33] 12.3% | viability, T/C [34] 15.4% | viability, T/C [11] 49.5% | viability, T/C [12] 66.1% | viability, T/C [35] 47% | viability, T/C [36] 39.8% | viability, T/C [37] 33.6% | viability, T/C [38] 33.7% | viability, T/C [17] 27.3% | viability, T/C [18] 28% | viability, T/C [39] 21.1% | viability, T/C [40] 16.2% | viability, T/C [41] 12%
active: viability, T/C [42] 10.6% | viability, T/C [23] 1.15% | viability, T/C [24] 1.91% | viability, T/C [43] 0.39% | viability, T/C [44] 1.58% | viability, T/C [45] 0.42% | viability, T/C [46] 0.35%
> 7.50: pIC50 (second compound 0.0316 µM) | pIC50 (second compound 0.1 µM) | pIC50 (second compound 1 µM) | pIC50 (second compound 3.16 µM)
6.64: pIC50 (second compound 0.316 µM)

Cn1ncnc1[C@H]1c2n[nH]c(=O)c3cc(F)cc(c23)N[C@@H]1c1ccc(F)cc1 + CNCc1ccccc1-c1csc(C(C)Nc2nc(C)nc3cc(OC)c(OC)cc23)c1
8.19: pIC50 (second compound 0.1 µM)
> 9.50: pIC50 (second compound 0.316 µM) | pIC50 (second compound 1 µM) | pIC50 (second compound 3.16 µM) | pIC50 (second compound 10 µM)
active: viability, T/C [19] 0.11% | viability, T/C [20] 0.05% | viability, T/C [21] 0.16% | viability, T/C [22] 0.06% | viability, T/C [23] 0.09% | viability, T/C [24] 0.18% | viability, T/C [25] 0.08% | viability, T/C [26] 0.09% | viability, T/C [27] 0.08% | viability, T/C [28] 0.09% | viability, T/C [29] 0.12% | viability, T/C [30] 0.16%
inactive: viability, T/C [1] 52.8% | viability, T/C [2] 70.3% | viability, T/C [3] 47.4% | viability, T/C [4] 44.4% | viability, T/C [5] 44.3% | viability, T/C [6] 37.2% | viability, T/C [7] 35.8% | viability, T/C [8] 30.6% | viability, T/C [9] 27.9% | viability, T/C [10] 29.3% | viability, T/C [11] 26.3% | viability, T/C [12] 27.4% | viability, T/C [13] 14.4% | viability, T/C [14] 15.7% | viability, T/C [15] 15.4% | viability, T/C [16] 14.4% | viability, T/C [17] 10.9% | viability, T/C [18] 15.1%

CNCc1ccccc1-c1csc(C(C)Nc2nc(C)nc3cc(OC)c(OC)cc23)c1 (stereo unspecified)
active: viability, T/C (compound 10 µM) 0.17% [middle of 15 runs]
112 nM [middle of 5 runs]: IC50 (compound alone, run of 07/19/2021)
